Assay: Miscibility and mixing stability in formulations
Assay type: physicochemical

Measured: miscibility and mixing stability

CC(CC(=O)NCCOCCOCCNC(=O)CC(C)CC(C)(C)C)CC(C)(C)C (stereo not drawn) [Compound (K)]
excellent: O/W cream of Example 2, 3.5% | hair liquid composition of Example 4, 1.0% | night cream of Example 5, 10.0% | shampoo of Example 3, 2.0% | skin lotion of Example 1, 1.0% | sunscreen emulsion of Example 6, 3.0%

From patent US7550135B2, “Composition for external application” (Kao Corporation, priority 2001, dated 2009)
